Measurements from patent US6645513B2, “Treatment of skin with adenosine or adenosine analog” (University of Massachusetts, priority 1998, dated 2003).
Values joined by “and” are separate entries in the source; they are usually repeats but may differ in a detail not shown here. Identical values can stand only once. Marks after values point to notes of the source that are not given here.

Key:
Type in all cases: cell-based
human skin fibroblasts [1] = assay: [3H]thymidine incorporation (index of DNA synthesis) in human skin fibroblasts
Procedure: (§1) Human skin fibroblasts and human lung fibroblasts were supplied by the N.I.A. Aging Culture Repository Center (Camden, N.J.). For skin fibroblasts, primary cultures had been initiated from explants obtained from a 3 mm punch biopsy of the mesial aspect of the upper left arm. Human lung fibroblasts (IMR-90) were established from a […] normal […] fetus.
Cells were grown in Eagle's minimal essential medium (MEM) supplemented with 10% fetal bovine serum (FBS), 100 U/ml penicillin and […] streptomycin in a 37° C., 5% CO2/95% air environment. After reaching confluence, cells were subcultivated with 0.25% trypsin in MEM with no added Ca^2+ or Mg^2+.
As an index of DNA synthesis incorporation of [^3H]thymidine was measured as described in Ethier et al., Am. J. Physiol. 272:H1470-79 (1997). Confluent monolayers of human skin fibroblasts in MEM plus 10% FBS were seeded into 16 mm diameter culture wells (24-well plates) at a density of 1×10^4 cells/cm^2. Cells were grown at 37° C. under standard culture conditions (5% CO2-95% air) until they were approximately 75% confluent. Medium was then removed and the cells were made “serum-free” by incubation in MEM with no FBS for 24 hours. Adenosine or vehicle (MEM) was added for an additional 18 hours. This medium was then replaced with fresh MEM, and the cells were pulsed with […] [^3H] thymidine (6.7 Ci/mmol). After a 2 hour incubation period, the medium was discarded and the cells were rinsed twice with cold (4° C.) Hank's balanced salt solution (HBSS) and incubated for 5 minutes with 0.5 ml cold 10% (w/v) trichloroacetic acid (TCA). The wells were then rinsed with 8% TCA and the TCA-insoluble material was solubilized with 0.5 ml of a solution of 0.2M NaOH and 0.2% sodium […] sulfate (SDS). The radioactivity of this fraction was determined by standard liquid scintillation spectrometric techniques.
Incorporation of [^3H] thymidine was expressed as counts per minute (cpm) of ^3H per culture. Data in each experiment was derived from 4 identically treated wells.

[2] = tested on: human lung fibroblasts (IMR-90); assay: [3H]thymidine incorporation in human lung fibroblasts (IMR-90); conditions: IMR-90 lung fibroblasts
Procedure: FIGS. 1A and 1B are histograms showing the effect of adenosine on [^3H]thymidine incorporation in cultures of normal human skin (FIG. 1A) and lung fibroblasts (FIG. 1B). After incubation in serum-free medium for 24 hours, cells were exposed to 10^−4 M adenosine for 18 hours. Medium was replaced with serum-free medium without adenosine, and [^3H]thymidine was added. Results are expressed as percent [^3H]thymidine incorporation compared to control cultures without adenosine and are means ±SEM for 4-5 experiments.
as §1
Cells were grown in Eagle's minimal essential medium (MEM) supplemented with 10% fetal bovine serum (FBS), 100 U/ml penicillin and […] streptomycin in a 37° C., 5% CO2/95% air environment. […]
As an index of DNA synthesis incorporation of [^3H]thymidine was measured as described in Ethier et al., Am. […] The radioactivity of this fraction was determined by standard liquid scintillation spectrometric techniques.
Incorporation of [^3H] thymidine was expressed as counts per minute (cpm) of ^3H per culture. […]

human skin fibroblasts [3] = assay: Determination of cell size by forward light scatter (FACS); conditions: for % increase (cell size) / Relative Size (FLS): adenosine 10^-4 M, 18 h; for increase of cell size: 10^-4 M
Procedure: Human fibroblasts in MEM 10% FBS were seeded into 25 cm^2 culture flasks at a density of 1×10^4 cells/cm^2. When the cells had grown to approximately 80% confluence the culture medium was removed and the cells were incubated in serum-free MEM for 24 hours. Adenosine or vehicle (MEM) was added for 18 hours and cells were then washed twice with cold (4° C.) HBSS. Cells were removed with 0.25% trypsin in calcium-and magnesium-free MEM and diluted in cold (4° C.) HBSS for measurement of relative cell size with a fluorescence-activated cell sorter (FACS; Becton Dickinson Vantage). Cell size was determined by forward light scatter on a minimum of 1×10^4 cells per experiment. The effect of adenosine on cell size was determined on human skin fibroblasts from young and aged donors by measuring forward light scatter in a FACS analyzer. Cultures made quiescent by serum removal were exposed to adenosine for 18 hours, removed by trypsinization, and diluted in 4° C. HBSS. A minimum of 1×10^4 cells were measured for each experiment. Values are mean ±SEM for relative cell size determined by forward light scatter (FLS) in a fluorescence-activated cell sorter, and n=number of cells measured.

human skin fibroblasts [4] = assay: [3H]phenylalanine incorporation (index of protein synthesis) in human skin fibroblasts; conditions: 10^-4 M, 48 h
Procedure: FIGS. 2A and 2B are histograms showing concentration responses of adenosine-stimulated protein synthesis in human skin fibroblasts from a young (FIG. 2A) and aged (FIG. 2B) donor. Cells were grown to 75% confluence. Medium was then replaced with serum-free medium with or without adenosine. After 48 hours, [^3H]phenylalanine incorporation was determined as described. Results are expressed as %[^3H]phenylalanine incorporation compared to control cultures without adenosine and are means ±SEM for 6-25 experiments. […] Incorporation of [^3H]phenylalanine was measured as an index of protein synthesis. Human skin fibroblasts were seeded into 24-well culture plates in MEM containing 10% FBS. When cells had grown to approximately 75% confluence the culture medium was replaced with serum-free MEM with or without adenosine. After 48 hours, 2 μCi/ml [^3H]phenylalanine was added to the cultures. Unlabeled phenylalanine (0.36 mM) was also added to equalize concentrations of intracellular and extracellular phenylalanine. […] The radioactivity of this fraction was determined by standard liquid scintillation spectrometric techniques. Incorporation of [^3H] phenylalanine was expressed as cpm of ^3H per culture well and data in each experiment were derived from six identically treated wells.

## Nc1ncnc2c1ncn2[C@@H]1O[C@H](CO)[C@@H](O)[C@H]1O [adenosine]
Human skin fibroblasts [1]; human fibroblasts AG607720B made quiescent by serum removal, 10^-4 M adenosine, five studies (FIG. 1A)
  increase of [3H]thymidine incorporation: 43±9%
Human skin fibroblasts [1]; skin fibroblasts from person (AG07306A), 10^-4 M, n=6
  peak stimulation of [3H]thymidine incorporation: 93±20%
Human skin fibroblasts [1]; skin fibroblasts from person one, 10^-4 M
  increase of [3H]thymidine incorporation: 53±31%
Human skin fibroblasts [1]; skin fibroblasts from person three, 10^-4 M
  increase of [3H]thymidine incorporation: 54±22%
Human skin fibroblasts [1]; skin fibroblasts from person two, 10^-4 M
  effect on DNA synthesis ([3H]thymidine incorporation): no effect
[2]; adenosine 10^-4 M (FIG. 1B)
  effect on [3H]thymidine incorporation: no effect
[2]; adenosine 10^-7 M to 10^-3 M (data not shown)
  stimulation of [3H]thymidine incorporation: failed to stimulate
Human skin fibroblasts [3]; aged donor, experiment 1
  % increase (cell size): 2.7* %
  Relative Size (FLS): 342 ± 0.75
Human skin fibroblasts [3]; aged donor, experiment 2
  % increase (cell size): 4.3* %
  Relative Size (FLS): 337 ± 0.96
Human skin fibroblasts [3]; aged donor, experiment 3
  % increase (cell size): 4.9* %
  Relative Size (FLS): 321 ± 0.81
Human skin fibroblasts [3]; skin fibroblasts from person (AG073060A), two of three experiments
  increase of cell size: 1.8% and 2.2%
Human skin fibroblasts [3]; skin fibroblasts from person three (AG11730), 3 of 3 experiments
  increase of cell size: 2.7-4.9%
Human skin fibroblasts [3]; young donor, experiment 1
  % increase (cell size): 0.4%
  Relative Size (FLS): 526 ± 0.55
Human skin fibroblasts [3]; young donor, experiment 2
  % increase (cell size): 2.2* %
  Relative Size (FLS): 326 ± 1.16
Human skin fibroblasts [3]; young donor, experiment 3
  % increase (cell size): 1.8* %
  Relative Size (FLS): 348 ± 0.95
Human skin fibroblasts [4]; skin fibroblasts from person (AG073060A), n=25
  increase of protein synthesis ([3H]phenylalanine incorporation): 13±4%
Human skin fibroblasts [4]; skin fibroblasts from person three (AG11730), n=17
  increase of protein synthesis ([3H]phenylalanine incorporation): 13±6%
